Results: patent publication US10653688B2, “6-(6-membered heteroaryl and aryl)isoquinolin-3-yl carboxamides and preparation and use thereof” (Samumed, LLC, priority 2017, dated 2020)
Where two headings read alike, the source gives them in different places.

What was measured:
[1] = tested on: LL29 cells (primary human fibroblasts derived from IPF patients), α-smooth muscle actin; assay: Inhibition of fibrotic process: TGF-β1-treated primary human fibroblasts, αSMA staining; type: cell-based; conditions: Homo sapiens, Fibroblast; for EC50: 96 h, TGF-β1 20 ng/mL, 4 days, % cells positive for αSMA; for inhibition at 10 µM: read-out: percent inhibition at 10 μM (given for EC50 >10 μM), TGF-β1, αSMA, 10 μM;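 on all read-outs here: controls were TGF-β1-stimulated wells with DMSO vehicle as the positive reference and cells given DMSO alone as the negative reference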
recombinant GSK3β kinase = recombinant GSK3β kinase (Homo sapiens (Human), UniProt P49841); assay: GSK3β kinase assay (Ser/Thr 09 peptide Z-lyte, FRET); type: biochemical;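 further: FRET read-out as coumarin over fluorescein emission ratio, compounds incubated one hour at room temperature, IC50 from dose-response curve fit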
[2] = tested on: Tau phosphorylation at Ser396 (pSer396) in SH-SY5Y cells; assay: Tau phosphorylation at Ser396 (pSer396) cell assay, ELISA/western blot; type: cell-based, human
Method: SH-SY5Y cells (human neuroblastoma) were cultured in DMEM/F-12 medium supplemented with 15% FBS, Non-essential Amino Acid and Penicillin/Streptomycin. Two days before treatment, cells were seeded onto 96 well plates at 5×10^4 cells/well.
The above synthesized compounds were screened using the cell assay procedure to assess decrease Tau phosphorylation at Ser396 (pSer396) described below.
DMSO-resuspended compounds were dispensed to 8 wells as a serial titration from 10 μM to 4.6 nM final in medium and cells were exposed overnight (16-18 h) in a humidified incubator at 36.6c before harvest.
Cells were lysed with RIPA buffer complemented with phosphatase and protease inhibitors then lysates were spun down at 12,000 g for 10 min to remove any cellular debris. Lysates are then either directly tested for pSer396 by ELISA (Life Technology, Kit KHB7031) or loaded on NuPage Bis-Tris gels for western blot analysis. Colorimetric detection of ELISA signal is performed by Cytation3 plate reader (Biotek) and the chemiluminescence signal for HRP-linked antibodies used in western blotting is detected using a Carestream Image Station. The same pSer396 antibody is used for detection of pTau in both assays.
Blot densitometry for pSer396 and β-actin were analyzed using ImageJ (NIH) and pSer396 Tau ELISA signal was used to plot, draw the curve fitting, and determine each compounds EC50 in Prism (GraphPad).

[3] = tested on: SW480 colon carcinoma cells; assay: Cell viability assay (CellTiter-Glo); type: cell-based, human; conditions: Homo sapiens; for EC50: 96 h, four days, CellTiter-Glo; for inhibition at 10 µM: read-out: percent inhibition at 10 μM (given for EC50 >10 μM), 10 μM
[4] = molecular target: recombinant DYRK1A kinase (Homo sapiens (Human), UniProt Q13627); assay: DYRK1A kinase assay (Ser/Thr 18 peptide Z-lyte, FRET)
[5] = tested on: Wnt activity (SW480 colon carcinoma cells stably expressing the Sp5-Luc reporter gene); assay: Wnt activity screening assay (Sp5-Luc reporter gene assay); type: cell-based, human; conditions: Homo sapiens; for EC50: 36 to 48 hours; for inhibition at 10 µM: read-out: percent inhibition at 10 μM (given for EC50 >10 μM), 10 μM
Method in brief: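 SW480 colon carcinoma cells stably carrying a lentiviral luciferase reporter driven by an Sp5 promoter with eight TCF/LEF sites, plated at 4,000 cells/well in DMEM with 1% FBS. Compound exposure for 36–48 h at 37 °C, then luminescence read. Signals normalized to DMSO; EC50 from four-parameter nonlinear fit.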

[6] = tested on: IL-6 in human peripheral blood mononuclear cells (huPBMCs); assay: IL-6 inhibition in LPS-stimulated human peripheral blood mononuclear cells (HTRF); type: cell-based; conditions: Homo sapiens, PBMC; for EC50: LPS 50 ng/mL, 22 hours, IL-6 HTRF; for inhibition at 10 µM: read-out: percent inhibition at 10 μM (given for EC50 >10 μM), LPS, IL-6, 10 μM
Method in brief: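 Fresh normal human PBMCs at 1×10e6 cells/mL in RPMI with 1% FBS received compound, then 50 ng/mL E. coli 0111:B4 LPS 2 h later, and were incubated a further 22 h at 37° C. IL-6 read by HTRF (665/620 nm ratio), normalized to DMSO; EC50 from 4-parameter fit.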

[7] = tested on: pT212Tau in Dyrk1a- and MAPT-overexpressing HEK293T cells; assay: Tau phosphorylation at Threonine 212 (pT212Tau) sandwich ELISA in double transfected cells; conditions: Homo sapiens, HEK-293T, read-out: Thr212 EC50 (μM)
[8] = tested on: secreted cytokines TNFα, IL-6 and KC-GRO in BV-2 cells (mouse microglial cells); assay: Secreted cytokines in lipopolysaccharide-stimulated mouse glial cell line; type: cell-based; conditions: LPS 250 ng/mL 5 hours, table does not say which cytokine
Method: Representative compounds were screened using the cell-based assay procedure for secreted cytokines in a Lipopolysaccharide-stimulated mouse glial cell line described below.
BV-2 cells (mouse microglial cells) were cultured in 1:1 DMEM medium supplemented with 10% FBS, and 1% penicillin/streptomycin.
BV-2 cells are plated at 35,000 cells/well in a volume of 100 μl for at least 4 hours before compounds are added. DMSO-resuspended compounds were first dispensed in a 96-well plate and serial diluted from 10 μM to 4.6 nM final concentration in medium. Compounds were added to cells overnight. 250 ng/mL of lipopolysaccharide (Escherichia coli O111:B4, SIGMA) was added for 5 hours. Supernatant is removed and saved for further cytokine detection. The original plates with seeded cells were tested for cytotoxicity by measure of adenosine triphosphate (ATP) release by adding CellTiter-Glo® diluted 1:4 in distilled water (G7573, Promega) and transferring lysed cells to a completely black 96-well plate to be read with the Cytation3. Supernatant was then diluted 1:2 with a diluent from V-PLEX cytokine Kit and directly tested for the secreted cytokines TNFα, IL-6 and KC-GRO using electrochemiluminescence (Meso Scale Discovery). The standard curve for each cytokine was used to convert the electrochemiluminescent signal into pg of protein per mL. The signal was used to plot, draw the curve fitting, and determine each compounds EC50 in Prism (GraphPad).

[9] = GSK3β kinase, head says EC50, method says IC50, ATP 46 μM
[10] = Homo sapiens, SH-SY5Y cells, overnight (16-18 h), read-out: pSer396 Tau EC50
[11] = DYRK1A kinase, head says EC50, method says IC50, ATP 30 μM

Chain of recombinant GSK3β kinase (P49841 whole entry): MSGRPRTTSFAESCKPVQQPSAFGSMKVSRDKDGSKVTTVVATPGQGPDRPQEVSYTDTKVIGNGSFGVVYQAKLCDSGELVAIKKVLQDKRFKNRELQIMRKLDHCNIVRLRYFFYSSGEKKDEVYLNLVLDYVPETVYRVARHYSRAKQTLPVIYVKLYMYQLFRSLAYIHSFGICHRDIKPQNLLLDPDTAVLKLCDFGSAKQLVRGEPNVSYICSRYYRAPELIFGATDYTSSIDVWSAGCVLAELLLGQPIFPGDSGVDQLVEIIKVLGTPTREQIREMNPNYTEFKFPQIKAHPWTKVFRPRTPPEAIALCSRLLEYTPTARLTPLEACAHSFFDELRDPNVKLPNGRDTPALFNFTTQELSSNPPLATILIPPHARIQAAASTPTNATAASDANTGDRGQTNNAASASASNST

Compound | EC50 [1] [nM] | EC50 (recombinant GSK3β kinase; [9]) [nM] | EC50 [2, 10] [nM] | EC50 [3] [nM] | inhibition at 10 µM [3] [%] | EC50 [4, 11] [nM] | EC50 [5] [nM] | inhibition at 10 µM [5] [%] | EC50 [6] [nM] | inhibition at 10 µM [6] [%] | EC50 [7] [µM] | inhibition at 10 µM [1] [%] | EC50 (recombinant GSK3β kinase) [nM] | EC50 [4] [nM] | EC50 [8] [nM] | EC50 ([2]; Homo sapiens, SH-SY5Y, read-out: EC50 in the Tau assay) [nM] | EC50 ([2]; control DYRK1A inhibitors, printed '>10 M' (μ apparently lost), read-out: EC50 in the Tau assay) [nM]
CN1CCC(C(=O)Nc2cc3cc(-c4ccccn4)ccc3cn2)CC1 [Compound 3, 1-Methyl-N-(6-(pyridin-2-yl)isoquinolin-3-yl)piperidine-4-carboxamide] | 6010 | 5310 | > 10000 | > 10000 | 50 | 260 | > 10000 | 13.7 | > 10000 | 5.1 |  |  |  |  |  |  | 
O=C(Nc1cc2cc(-c3cncc(F)c3)ccc2cn1)[C@H]1C[C@H](N2CCOCC2)C1 [Compound 16, trans-N-(6-(5-Fluoropyridin-3-yl)isoquinolin-3-yl)-3-morpholinocyclobutane-1-carboxamide] | > 10000 | 256 | 2600 | > 10000 | 15.5 | 8 | > 10000 | 24.9 | > 10000 | 43.1 | 0.046 | 6.7 |  |  |  |  | 
CN1CCN(CC(=O)Nc2cc3cc(-c4cncc(C(F)(F)F)c4)ccc3cn2)CC1 [Compound 29, 2-(4-Methylpiperazin-1-yl)-N-(6-(5-(trifluoromethyl)pyridin-3-yl)isoquinolin-3-yl)acetamide] | 4020 | > 10000 | > 10000 | 4000 |  | 608 | 9840 |  | > 10000 | 4.3 |  |  |  |  |  |  | 
CN1CCC(C(=O)Nc2cc3cc(-c4cncc(CO)c4)ccc3cn2)CC1 [Compound 31, N-(6-(5-(Hydroxymethyl)pyridin-3-yl)isoquinolin-3-yl)-1-methylpiperidine-4-carboxamide] | 450 |  | 9100 | 859 |  |  | 862 |  | 8940 |  |  |  | 698 | 3 |  |  | 
CC(=O)Nc1cncc(-c2ccc3cnc(NC(=O)C4CCN(C)CC4)cc3c2)c1 [Compound 47, N-(6-(5-Acetamidopyridin-3-yl)isoquinolin-3-yl)-1-methylpiperidine-4-carboxamide] | 556 | 487 | > 10000 | 6980 |  | 2 | 1260 |  | 5990 |  |  |  |  |  |  |  | 
O=C(Nc1cc2cc(-c3cncc(OC4CCNCC4)c3)ccc2cn1)C1CC1 [Compound 55, N-(6-(5-(Piperidin-4-yloxy)pyridin-3-yl)isoquinolin-3-yl) cyclopropanecarboxamide] | 2060 | 1030 | 1100 | 1190 |  | 5 | 698 |  | 3230 |  |  |  |  |  |  |  | 
CNC(=O)c1cncc(-c2ccc3cnc(NC(=O)C4CCN(C)CC4)cc3c2)c1 [Compound 58, N-Methyl-5-(3-(1-methylpiperidine-4-carboxamido)isoquinolin-6-yl) nicotinamide] | > 10000 | 1970 | > 10000 | > 10000 | 30.9 | 9 | > 10000 | 43.7 | 9660 |  |  | 44.6 |  |  |  |  | 
Cc1ncc(-c2ccc3cnc(NC(=O)C4CCN(C)CC4)cc3c2)cn1 [Compound 63, 1-Methyl-N-(6-(2-methylpyrimidin-5-yl)isoquinolin-3-yl)piperidine-4-carboxamide] | 2390 | > 10000 | > 10000 | > 10000 | 7.4 | 221 | > 10000 | 9.9 | > 10000 | 7.9 |  |  |  |  |  |  | 
CN1CCC(C(=O)Nc2cc3cc(-c4cnc(N)nc4)ccc3cn2)CC1 [Compound 65, N-(6-(2-Aminopyrimidin-5-yl)isoquinolin-3-yl)-1-methylpiperidine-4-carboxamide] | 2440 |  | > 10000 | > 10000 | 47.1 |  | > 10000 | 32.2 | > 10000 | 0 |  |  | 8970 | 48 |  |  | 
CN(C)[C@H]1CC[C@H](C(=O)Nc2cc3cc(-c4cnccn4)ccc3cn2)CC1 [Compound 70, trans-4-(dimethylamino)-N-(6-(pyrazin-2-yl)isoquinolin-3-yl)cyclohexane-1-carboxamide] | 634 |  | 7800 | > 10000 | 35.3 |  | > 10000 | 31 | 9330 |  |  |  | 755 | 17 | 57 |  | 
O=C(Nc1cc2cc(-c3cnccn3)ccc2cn1)c1ccc(CN2CCOCC2)cc1 [Compound 83, 4-(Morpholinomethyl)-N-(6-(pyrazin-2-yl)isoquinolin-3-yl)benzamide] | > 10000 | > 10000 | > 10000 | 6760 |  | 9 | 3510 |  | > 10000 | 5 |  | 29.6 |  |  |  |  | 
O=C(Nc1cc2cc(-c3cncc(OCC4CNC4)n3)ccc2cn1)c1ccc(F)cc1 [Compound 124, N-(6-(6-(azetidin-3-ylmethoxy)pyrazin-2-yl)isoquinolin-3-yl)-4-fluorobenzamide] | > 10000 | 180 | 807 | 2420 |  | 6 | 1060 |  | 2090 |  |  | 5.2 |  |  |  |  | 
COc1ccc2c(c1)[nH]c1c(C)nccc12 [Harmine, reference compound] |  |  |  |  |  |  |  |  |  |  |  |  |  |  |  | > 10000 | 
CCN1/C(=C/C(C)=O)Sc2ccc(O)cc21 [Indy, reference compound] |  |  |  |  |  |  |  |  |  |  |  |  |  |  |  |  | > 10000
